The test system of this series is liver. The series is described as follows: Detection of indocyanine green across SWIR wavelengths in vivo (hepatobiliary clearance). As to conditions: mouse, intravenous 1.7 mg/kg, SWIR fluorescence detection. As for the experimental part: When injected into a living system, indocyanine green is metabolized by the liver and excreted by the liver and bile ducts by a process called hepatobiliary clearance. This process was observed, noninvasively, by injecting a solution of indocyanine green intravenously into a mouse and using an SWIR imaging system as described herein to observe the fluorescence of indocyanine green. The dye was injected at a dose of 1.7 mg/kg which is below the maximum recommended dose of indocyanine green in humans. […] Despite the fact that 1500 nm is far from the peak emission of indocyanine green, there is sufficient emission intensity from the tail of the emission peak in this wavelength region to obtain a SWIR fluorescence image. Separately, hepatobiliary excretion of ICG into the small intestine in a mouse was also imaged using a near video rate imaging of 19.7 frames per second using a 1200 nm long-pass filter, which enabled capturing the peristaltic movements of the small intestine. Although the frame rate was slower, 2.0 frames per second, it was possible to image the ICG clearance using a 1500 nm long-pass filter, capturing wavelengths between roughly 1500 and 1620 nm.

Take `CC1(C)C(/C=C/C=C/C=C/C=C2\N(CCCCS(=O)(=O)O)c3ccc4ccccc4c3C2(C)C)=[N+](CCCCS(=O)(=O)[O-])c2ccc3ccccc3c21` [ICG, indocyanine green]: the “accumulation in the liver” value was “observed”.

Values taken from patent US11579088B2, “Device and method for imaging shortwave infrared fluorescence” (Massachusetts Institute of Technology, priority 2016, dated 2023).
